Experiments:
[1] = test system: normal NK cells expanded with K562-aAPC; experiment: percent inhibition of viability; higher = more inhibition; details: 72 h, IL-2 2.5 ng/mL
Description: (§1)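 Drug sensitivity and resistance testing on K562-aAPC-expanded normal NK cells: 5 concentrations (10-fold steps over a 10,000-fold range), 72 h at 37 °C, viability by CellTiter-Glo normalised to DMSO and benzethonium chloride controls; DSS from the fitted curve.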

DERL-7 (IL-2 2.5 ng/mL) [2] = experiment: as above; details: 72 h
IMC-1 (IL-2 20 ng/mL) [3] = experiment: as above; details: 72 h
KAI3 (IL-2 2.5 ng/mL) [4] = experiment: as above; details: 72 h
KHYG-1 (IL-2 2.5 ng/mL) [5] = experiment: as above; details: 72 h
NK-92 (IL-2 2.5 ng/mL) [6] = experiment: as above; details: 72 h
NK-YS (IL-2 2.5 ng/mL) [7] = experiment: as above; details: 72 h
NKL (IL-2 2.5 ng/mL) [8] = experiment: as above; details: 72 h
SNK-6 (IL-2 2.5 ng/mL) [9] = experiment: as above; details: 72 h
YT (IL-2 2.5 ng/mL) [10] = experiment: as above; details: 72 h
[11] = test system: normal primary NK cells, pool 1 (3 donors) (IL-2 2.5 ng/mL); experiment: as above; details: 72 h
[12] = test system: normal primary NK cells, pool 1 (3 donors), resting (IL-2 0 ng/mL); experiment: as above; details: 72 h
[13] = test system: normal primary NK cells, pool 2 (3 donors) (IL-2 2.5 ng/mL); experiment: as above; details: 72 h
[14] = test system: normal primary NK cells, pool 3 (3 donors) (IL-2 2.5 ng/mL); experiment: as above; details: 72 h
[15] = test system: normal NK cells expanded with K562-aAPC; experiment: drug sensitivity score (DSS) (DSS units); higher = more sensitive; extreme values may be limits of the assay; details: 72 h; IL-2 2.5 ng/mL
Description: as §1

DERL-7 (IL-2 2.5 ng/mL) [16] = experiment: as above; details: 72 h
IMC-1 (IL-2 20 ng/mL) [17] = experiment: as above; details: 72 h
KAI3 (IL-2 2.5 ng/mL) [18] = experiment: as above; details: 72 h
KHYG-1 (IL-2 2.5 ng/mL) [19] = experiment: as above; details: 72 h
NK-92 (IL-2 2.5 ng/mL) [20] = experiment: as above; details: 72 h
NK-YS (IL-2 2.5 ng/mL) [21] = experiment: as above; details: 72 h
NKL (IL-2 2.5 ng/mL) [22] = experiment: as above; details: 72 h
SNK-6 (IL-2 2.5 ng/mL) [23] = experiment: as above; details: 72 h
YT (IL-2 2.5 ng/mL) [24] = experiment: as above; details: 72 h
[25] = test system: normal primary NK cells, pool 1 (3 donors) (IL-2 2.5 ng/mL); experiment: as above; details: 72 h
[26] = test system: normal primary NK cells, pool 1 (3 donors), resting (IL-2 0 ng/mL); experiment: as above; details: 72 h
[27] = test system: normal primary NK cells, pool 2 (3 donors) (IL-2 2.5 ng/mL); experiment: as above; details: 72 h
[28] = test system: normal primary NK cells, pool 3 (3 donors) (IL-2 2.5 ng/mL); experiment: as above; details: 72 h

N#Cc1ccc(COC[C@H]2O[C@@H](n3c(NCc4ccc(Cl)c(Cl)c4)nc4c(N)ncnc43)[C@H](O)[C@@H]2O)cc1 (max concentration tested 10000 nM)
percent inhibition of viability [%]
Details	1 nM	10 nM	100 nM	1000 nM	10000 nM
DERL-7 (IL-2 2.5 ng/mL) [2]	4.78	2.63	2.42	7.67	32.1
IMC-1 (IL-2 20 ng/mL) [3]	-1.92	-0.39	-4.01	-16.8	97.2
KAI3 (IL-2 2.5 ng/mL) [4]	1.01	1.02	-1.36	17.5	34.8
KHYG-1 (IL-2 2.5 ng/mL) [5]	-2.11	-1.26	0.87	11.4	62.4
NK-92 (IL-2 2.5 ng/mL) [6]	-0.8	4.51	-4.4	7.42	45.2
NK-YS (IL-2 2.5 ng/mL) [7]	-1.65	1.3	-0.1	21.7	64.4
NKL (IL-2 2.5 ng/mL) [8]	4.1	5.28	-8.68	9.7	9.11
SNK-6 (IL-2 2.5 ng/mL) [9]	5.72	12.3	-10.3	21.8	52.5
YT (IL-2 2.5 ng/mL) [10]	2.07	0.4	-2.55	12.2	59
[1]	-3.56	-7.9	-9.32	1.88	14.8
[11]	-6.38	-11.1	5.83	5.84	18.5
[12]	-3.74	-9.12	7.84	15.3	41
[13]	-10.6	-2.26	-3.97	-0.12	12.3
[14]	-13.6	-13.5	-14	-9.19	-0.46

Details	drug sensitivity score
DERL-7 (IL-2 2.5 ng/mL) [16]	2.63
IMC-1 (IL-2 20 ng/mL) [17]	4.46
KAI3 (IL-2 2.5 ng/mL) [18]	3.83
KHYG-1 (IL-2 2.5 ng/mL) [19]	5.29
NK-92 (IL-2 2.5 ng/mL) [20]	3.57
NK-YS (IL-2 2.5 ng/mL) [21]	6.65
NKL (IL-2 2.5 ng/mL) [22]	0
SNK-6 (IL-2 2.5 ng/mL) [23]	5.74
YT (IL-2 2.5 ng/mL) [24]	5.18
[15]	0.38
[25]	0.69
[26]	3.54
[27]	0.06
[28]	0

CNC(=O)c1ccc(-c2cnc3ncc(Cc4ccc5ncccc5c4)n3n2)cc1F [NVP-INC280] (max concentration tested 1000 nM)
percent inhibition of viability [%]
Details	0.1 nM	1 nM	10 nM	100 nM	1000 nM
DERL-7 (IL-2 2.5 ng/mL) [2]	-5.28	4.26	-9.16	-6.92	-4.89
IMC-1 (IL-2 20 ng/mL) [3]	0.35	-0.99	7.3	10.2	14.7
KAI3 (IL-2 2.5 ng/mL) [4]	-3.13	-7.87	2.81	8.6	10.3
KHYG-1 (IL-2 2.5 ng/mL) [5]	0.53	0.71	6.28	8.45	7.71
NK-92 (IL-2 2.5 ng/mL) [6]	-4.47	-11.1	1.26	-6.37	7.6
NK-YS (IL-2 2.5 ng/mL) [7]	-3.18	-2.55	2.09	4.91	7.49
NKL (IL-2 2.5 ng/mL) [8]	-14.8	-12	-3.62	-0.32	1.94
SNK-6 (IL-2 2.5 ng/mL) [9]	1.66	-4.69	8.68	23.7	31.8
YT (IL-2 2.5 ng/mL) [10]	-0.04	-0.12	2.87	3.88	14.8
[1]	3.07	-1.65	0.35	12.4	9.59
[11]	-3.26	-0.85	-0.05	-8.05	-1.86
[12]	-4.36	11.4	-16.1	-15.8	-5.95
[13]	-5.16	-9.82	0.45	-1.98	7.71
[14]	-4.63	-9.7	-8.57	-10.9	-0.53

Details	drug sensitivity score
DERL-7 (IL-2 2.5 ng/mL) [16]	0
IMC-1 (IL-2 20 ng/mL) [17]	0.81
KAI3 (IL-2 2.5 ng/mL) [18]	0.03
KHYG-1 (IL-2 2.5 ng/mL) [19]	0
NK-92 (IL-2 2.5 ng/mL) [20]	0
NK-YS (IL-2 2.5 ng/mL) [21]	0
NKL (IL-2 2.5 ng/mL) [22]	0
SNK-6 (IL-2 2.5 ng/mL) [23]	4.62
YT (IL-2 2.5 ng/mL) [24]	0.42
[15]	0.67
[25]	0
[26]	0
[27]	0
[28]	0

NC(=O)N1CCC(CC(=O)N2CCC([C@H]3c4ncc(Br)cc4CCc4cc(Cl)cc(Br)c43)CC2)CC1 [Lonafarnib] (max concentration tested 10000 nM)
percent inhibition of viability [%]
Details	1 nM	10 nM	100 nM	1000 nM	10000 nM
DERL-7 (IL-2 2.5 ng/mL) [2]	3.48	0.48	5.47	44.5	73
IMC-1 (IL-2 20 ng/mL) [3]	-4.85	-3.21	-6.32	-1.06	36.6
KAI3 (IL-2 2.5 ng/mL) [4]	-4.05	0.27	9.71	30.5	38.6
KHYG-1 (IL-2 2.5 ng/mL) [5]	-3.98	-2.08	3.33	67.6	83.9
NK-92 (IL-2 2.5 ng/mL) [6]	-13	-12.8	-0.32	39.8	57.2
NK-YS (IL-2 2.5 ng/mL) [7]	-6.93	-2.78	13.2	56.3	79.7
NKL (IL-2 2.5 ng/mL) [8]	-11.3	-10.4	-4.09	19.2	37.3
SNK-6 (IL-2 2.5 ng/mL) [9]	3.51	1.11	8.58	31.1	33.3
YT (IL-2 2.5 ng/mL) [10]	-2.94	-2.27	4.51	28.1	60.1
[1]	-2.48	-4.83	1.81	10.5	25.2
[11]	-10.4	-3.37	6.08	19.4	88.9
[12]	-4.29	2.54	32.3	35.8	90
[13]	-4.12	2.21	1.62	17.7	73.4
[14]	-2.09	0.34	2.3	9.06	52.3

Details	drug sensitivity score
DERL-7 (IL-2 2.5 ng/mL) [16]	9.51
IMC-1 (IL-2 20 ng/mL) [17]	1.66
KAI3 (IL-2 2.5 ng/mL) [18]	6.28
KHYG-1 (IL-2 2.5 ng/mL) [19]	13
NK-92 (IL-2 2.5 ng/mL) [20]	7.81
NK-YS (IL-2 2.5 ng/mL) [21]	12.2
NKL (IL-2 2.5 ng/mL) [22]	4.21
SNK-6 (IL-2 2.5 ng/mL) [23]	6.27
YT (IL-2 2.5 ng/mL) [24]	6.47
[15]	1.95
[25]	8.02
[26]	11.6
[27]	6.83
[28]	4.3
